{"source": "patent US20070093520A1", "about": "“Method of treatment of diarrhea-predominant irritable bowel syndrome in a subject” (priority 2005, published 2007)", "test_system": "diarrhea-predominant IBS subjects", "assay": "3007 Study: IBS-QOL Survey", "assay_type": "in vivo, human", "source_text": "Subjects were asked to complete the IBS-QOL Survey at Visits 1, 3, and 6 in order to assess possible changes of their QOL.\nSubjects were asked to complete a IBS-QOL Survey at Day 1 (Visit 5 of the core protocol), Month 6 and Month 12 (end of study or early termination) in order to assess possible changes of their QOL. The IBS-QoL survey, a 34 item IBS-specific QoL questionnaire consisting of 8 subscales (i.e., interference with activity; body image; health worry; food avoidance; social reaction; sexual; relationship; and dysphoria) was completed by patients at baseline and at later specified time points (e.g., at week 12 and at week 16 in Study 5050).\nFor IBS-QOL, Baseline for subjects randomized to the cilansetron treatment group was defined as […] of core Study 3006. For subjects randomized to the placebo group of core Study 3006, Visit 5 of the core Study 3006 was assigned as the Baseline.\nMean changes from Baseline for the IBS-QOL total score and subscale domains were summarized via descriptive statistics at […] and Visit 6 (Month 12) of Study 3007 for subjects randomized to the placebo group in core Study 3006 (or for subjects randomized to the cilansetron treatment group in the core Study 3006, at Visit 5 (Month 3), at Visit 3 (Month 6) and Visit 6 (Month 15) of Study 3007).\nFor Study 3007, “baseline” was defined as the last post-Baseline visit of Study 3006 (normally Visit 5) for subjects randomized to the placebo group and as Visit 1 of core Study 3006 for subjects randomized to the cilansetron treatment group.\nThe overall IBS-QOL score and the separate IBS-QOL domain scores (i.e. dysphoria, interference with activity, body image, health worry, food avoidance, social reaction, sexual, and relationship) were summarized by treatment group using descriptive statistics. The calculation of each domain score and the overall score is detailed in the user's manual. For each of the domain scores, as well as for the overall score, the change from Baseline to Endpoint was summarized descriptively. Based on the instruction from the author of the IBS-QOL questionnaire, the missing data of the IBS-QOL questionnaire were handled as follows: • If less than or equal to 20% of the items within a subscore (or total score) were missing for a subject, the subscore (or total score) was the summation of the non-missing scores for that subject; • If more than 20% of the items within a subscore (or total score) were missing, the subscore (or total score) was missing for that subject. Determination of Sample Size"}
{"smiles": "Cc1nccn1C[C@H]1CCc2c(c3cccc4c3n2CCC4)C1=O", "note": "[cilansetron, (R)-(−)-4,5,6,8,9,10-hexahydro-10-[(2-methyl-1H-imidazol-1-yl)methyl]-11H-pyrido-[3,2,1-jk]-carbazol-11-one]", "values": [{"measurement": "QOL after the start of cilansetron treatment", "setting": "Study 3007, P/C", "value": "An improvement was observed"}, {"measurement": "improvement of mean IBS-QOL total score from Baseline", "setting": "Study 3007, at Endpoint, C/C", "value": 20.1}, {"measurement": "mean IBS-QOL total score", "setting": "Study 3007, at Endpoint, C/C", "value": 70.7}, {"measurement": "improvement of mean IBS-QOL total score from Baseline", "setting": "Study 3007, at Endpoint, P/C", "value": 8.9}, {"measurement": "mean IBS-QOL total score", "setting": "Study 3007, at Endpoint, P/C", "value": 70.9}, {"measurement": "mean IBS-QOL total score", "setting": "Study 3007, at Endpoint, overall", "value": 70.8}, {"measurement": "mean IBS-QOL total score", "setting": "at the start of Study 3007 (after 12 weeks of Study 3006), C/C", "value": 69.5}, {"measurement": "beneficial effect on the QOL observed during Study 3006", "setting": "during Study 3007, C/C", "value": "maintained"}]}
